Experimental data reported in patent US20130274127A1, “GENE EXPRESSION MARKERS FOR PREDICTION OF RESPONSE TO PHOSPHOINOSITIDE 3-KINASE INHIBITORS” (GENOMIC HEALTH, INC., priority 2012, published 2013).

Assays:
Assay in all cases: NCI-60 in vitro drug sensitivity testing (SRB)
Assay type in all cases: cell-based
[1] = system: OVCAR-4; conditions: Homo sapiens, OVCAR-4, read-out: GDC-0941 GI50
Text: (§1) Cell lines used in this study were obtained from the National Cancer Institute Developmental Therapeutics program (NCI DTP) and were maintained in RPMI 1640 media (Invitrogen, Grand Island, N.Y.) containing 10% Fetal Bovine Serum (ATCC, Manassas, Va.). Cell lines were used within six months of receipt from the NCI DTP, abrogating the need for reauthentication.

[2] = system: MDA-MB-231; conditions: Homo sapiens, MDA-MB-231, read-out: GDC-0941 GI50
Text: as §1

[3] = system: MCF7; conditions: Homo sapiens, MCF7, read-out: GDC-0941 GI50
Text: as §1

[4] = system: DU-145; conditions: Homo sapiens, DU-145, read-out: GDC-0941 GI50
Text: as §1
(§2) 14, 2010 and Aug. 9, 2010.

[5] = system: SK-MEL-28; conditions: Homo sapiens, SK-MEL-28, read-out: GDC-0941 GI50
Text: as §1, §2

[6] = system: OVCAR-8; conditions: Homo sapiens, OVCAR-8, read-out: GDC-0941 GI50
Text: as §1, §2

[7] = system: RXF 393; conditions: Homo sapiens, RXF 393, read-out: GDC-0941 GI50
Text: as §1, §2

[8] = system: SN12C; conditions: Homo sapiens, read-out: GDC-0941 GI50
Text: as §1, §2

[9] = system: A498; conditions: Homo sapiens, A498, read-out: GDC-0941 GI50
Text: as §1, §2

[10] = system: NCI/ADR-RES; conditions: Homo sapiens, read-out: GDC-0941 GI50
Text: as §1, §2

[11] = system: U251; conditions: Homo sapiens, U-251, read-out: GDC-0941 GI50
Text: as §1, §2

[12] = system: SF-295; conditions: Homo sapiens, SF-295, read-out: GDC-0941 GI50
Text: as §1, §2

[13] = system: HCC-2998; conditions: Homo sapiens, read-out: GDC-0941 GI50
Text: as §1, §2

[14] = system: MOLT-4; conditions: Homo sapiens, MOLT-4, read-out: GDC-0941 GI50
Text: as §1, §2

[15] = system: SF-539; conditions: Homo sapiens, SF-539, read-out: GDC-0941 GI50
Text: as §1, §2

[16] = system: ACHN; conditions: Homo sapiens, read-out: GDC-0941 GI50
Text: as §1, §2

[17] = system: HS 578T; conditions: Homo sapiens, read-out: GDC-0941 GI50
Text: as §1, §2

[18] = system: 786-0; conditions: Homo sapiens, 786-0, read-out: GDC-0941 GI50
Text: as §1, §2

[19] = system: HT29; conditions: Homo sapiens, HT-29, read-out: GDC-0941 GI50
Text: as §1, §2

[20] = system: TK-10; conditions: Homo sapiens, TK-10, read-out: GDC-0941 GI50
Text: as §1, §2

[21] = system: SW-620; conditions: Homo sapiens, SW-620, read-out: GDC-0941 GI50
Text: as §1, §2

[22] = system: COLO 205; conditions: Homo sapiens, COLO 205, read-out: GDC-0941 GI50
Text: as §1, §2

[23] = system: EKVX; conditions: Homo sapiens, read-out: GDC-0941 GI50
Text: as §1, §2

[24] = system: CCRF-CEM; conditions: Homo sapiens, read-out: GDC-0941 GI50
Text: as §1, §2

[25] = system: UACC-62; conditions: Homo sapiens, UACC-62, read-out: GDC-0941 GI50
Text: as §1, §2

[26] = system: M14; conditions: Homo sapiens, M14, read-out: GDC-0941 GI50
Text: as §1, §2

[27] = system: UO-31; conditions: Homo sapiens, UO-31, read-out: GDC-0941 GI50
Text: as §1, §2

[28] = system: KM12; conditions: Homo sapiens, KM12, read-out: GDC-0941 GI50
Text: as §1, §2

[29] = system: SK-MEL-2; conditions: Homo sapiens, SK-MEL-2, read-out: GDC-0941 GI50
Text: as §1, §2

[30] = system: NCI-H23; conditions: Homo sapiens, NCI-H23, read-out: GDC-0941 GI50
Text: as §1, §2

[31] = system: SR; conditions: Homo sapiens, read-out: GDC-0941 GI50
Text: as §1, §2

Work on `CS(=O)(=O)N1CCN(Cc2cc3nc(-c4cccc5[nH]ncc45)nc(N4CCOCC4)c3s2)CC1` [GDC-0941] yielded a GI50 [1] of 3800 nM, a GI50 [2] of 1480 nM and a GI50 [3] of 55 nM. It also gave a GI50 [4] of 355 nM, a GI50 [5] of 617 nM and a GI50 [6] of 646 nM. It also gave a GI50 [7] of 251 nM, a GI50 [8] of 229 nM and a GI50 [9] of 123 nM. The GI50 [10] was 2040 nM, the GI50 [11] was 1050 nM and the GI50 [12] was 110 nM. The GI50 [13] was 1320 nM, the GI50 [14] was 155 nM and the GI50 [15] was 251 nM. It also gave a GI50 [16] of 162 nM, a GI50 [17] of 71 nM and a GI50 [18] of 295 nM. For the same compound, the GI50 [19] was 120 nM, the GI50 [20] was 550 nM and the GI50 [21] was 832 nM. For the same compound, the GI50 [22] was 269 nM, the GI50 [23] was 195 nM and the GI50 [24] was 2340 nM. For the same compound, the GI50 [25] was 112 nM, the GI50 [26] was 871 nM and the GI50 [27] was 78 nM. The GI50 [28] was 708 nM, the GI50 [29] was 759 nM and the GI50 [30] was 2290 nM. It also gave a GI50 [31] of 1290 nM.
